Strand notation (5' to 3'): a small letter for the sugar, then the base; units joined by * are phosphorothioate-linked, units joined directly phosphodiester-linked; [ ] holds rarer units or linkages, { } end groups; capitals alone tell only the bases. l = locked nucleic acid (LNA); [5mC] = 5-methylcytosine; d = 2'-deoxy (DNA)
What was measured:
[1] = system: mouse androgen receptor mRNA; experiment: In vivo knock-down of AR mRNA expression in mouse liver (QPCR); conditions: nude mice, 100 mg/kg i.v. q3dx4, liver 24 h after last dosing, normalised to mouse GAPDH, relative to saline treated animals
Experimental: Nude mice were dosed i.v. q3dx4 with 100 mg/kg oligonucleotide (group size of 5 mice). The antisense oligonucleotides (SEQ ID:48, SEQ ID:51, SEQ ID:58, SEQ ID:63, SEQ ID:77) were dissolved in phosphate buffered saline. Animals were sacrificed 24 h after last dosing and liver tissue was sampled and stored in RNA later until RNA extraction and QPCR analysis. Total RNA was extracted and AR mRNA expression in liver samples was measured by QPCR as described in Example 7 using a mouse AR QPCR assay (cat. Mm01238475_m1, Applied Biosystems). Results were normalised to mouse GAPDH (cat. no. 4352339E, Applied Biosystems) and knock-own was quantitated relative to saline treated controls. The data in Table 4 are presented as percentage down-regulation relative to saline treated animals.

[2] = system: LNCaP prostate cancer cells; experiment: Measurement of proliferating viable cells (MTS assay), LNCaP; type: cell-based, human; conditions: 4 nM and 16 nM, time course post-transfection (FIG. 14)
Experimental: (§1) LNCaP prostate cancer and A549 lung cancer cells were seeded to a density of 150,000 cells per well in a 6-well plate the day prior to transfection. A549 cells were cultured in DMEM (Sigma)+10% fetal bovine serum (FBS)+2 mM Glutamax I+gentamicin (25 μg/ml) whereas LNCaP cells were cultured in RPMI 1640 Medium (Sigma)+10% fetal bovine serum (FBS)+2 mM Glutamax I+gentamicin (25 μg/ml). On the following day, medium was removed followed by addition of 1.2 ml OptiMEM containing 5 μg/ml Lipofectamine2000 (Invitrogen). Cells were incubated for 7 min before adding 0.3 ml oligonucleotides diluted in OptiMEM. The final oligonucleotide concentrations were 4 nM and 16 nM. After 4 hours of treatment, media was removed and cells were trypsinized and seeded to a density of 5000 cells per well in a clear 96 well plate (Scientific Orange no. 1472030100) in 100 μl media. Viable cells were measured at the times indicated by adding 10 μl the tetrazolium compound [3-(4,5-[…])-5-(3-carboxymethoxyphenyl)-2-(4-sulfophenyl)-2H-tetrazolium, inner salt; MTS] and an electron coupling reagent (phenazine ethosulfate; PES) (CellTiter 96® AQueous One Solution Cell Proliferation Assay, Promega). Viable cells were measured at 490 nm in a Powerwave (Biotek Instruments). The OD490 nm measurements were plotted against time/h. (See FIG. 13 and FIG. 14).

A549 lung cancer cells = experiment: Measurement of proliferating viable cells (MTS assay), A549; type: cell-based, human; conditions: 4 nM and 16 nM, time course post-transfection (FIG. 13)
Experimental: as §1

[3] = system: Caspase 3/7 activity in LNCaP cells; experiment: Caspase 3/7 activity (Caspase-Glo 3/7) in LNCaP cells; type: cell-based, human; conditions: 4 nM and 16 nM; 14 h, 48 h and 72 h (FIG. 15)
Experimental: (§2) LNCaP prostate cancer cells and A549 lung cancer cells were seeded to a density of 150,000 cells per well in a 6-well plate the day prior to transfection. A549 cells were cultured in DMEM (Sigma)+10% fetal bovine serum (FBS)+2 mM Glutamax I+gentamicin (25 μg/ml) whereas LNCaP cells were cultured in RPMI 1640 Medium (Sigma)+10% fetal bovine serum CUBS)+2 mM Glutamax I+gentamicin (25 μg/ml). The next day medium was removed followed by addition of 1.2 ml OptiMEM containing 5 μg/ml Lipofectamine2000 (Invitrogen). Cells were incubated for 7 min before adding 0.3 ml oligonucleotides diluted in OptiMEM. The final oligonucleotide concentrations were 4 nM and 16 nM. After 4 hours of treatment, media was removed and cells were trypsinized and seeded to a density of 5000 cells per well in a white 96 well plate (Nunc) in 100 μl media. Caspase 3/7 activity was measured at the times indicated by adding 100 μl Caspase-Glo 3/7 assay (Promega). Caspase 3/7 activity was measured using a luminometer. The caspase 3/7 activities were measured at three different time points 14 h, 48 h and 72 h (See FIG. 15 and FIG. 16).

[4] = system: Caspase 3/7 activity in A549 cells; experiment: Caspase 3/7 activity (Caspase-Glo 3/7) in A549 cells; type: cell-based, human; conditions: 4 nM and 16 nM; 14 h, 48 h and 72 h (FIG. 16)
Experimental: as §2

[5] = system: human androgen receptor mRNA; experiment: AR mRNA knock-down in LNCaP, 24 h post-transfection, 0.5-16 nM (qPCR); type: cell-based; conditions: 0.5, 1, 2, 4, 8 and 16 nM, 24 h post-transfection (FIG. 11)
Experimental: FIG. 11: AR mRNA in LNCaP, 24 h post-transfection
(§3) Oligonucleotides were evaluated for their potential to knock down androgen receptor mRNA expression at concentrations of 0.5, 1, 2, 4, 8 and 16 nM (see FIG. 11). LNCaP prostate cancer cells and A549 lung cancer cells were seeded to a density of 150,000 cells per well in a 6-well plate the day prior to transfection. A549 cells were cultured in DMEM (Sigma)+10% fetal bovine serum (FBS)+2 mM Glutamax I+gentamicin (25 μg/ml). LNCaP cells were cultured in RPMI 1640 Medium (Sigma)+10% fetal bovine serum (FBS)+2 mM Glutamax I+gentamicin ([…]). On the following day, medium was removed followed by addition of 1.2 ml OptiMEM containing 5 μg/ml Lipofectamine2000 (Invitrogen). Cells were incubated for 7 min before adding 0.3 ml oligonucleotides diluted in OptiMEM. The final oligonucleotide concentrations were 0.5, 1, 2, 4, 8 and 16 nM. Cells were washed and serum-containing media was added. After oligomer treatment cells were allowed to recover for 20 hours before they were harvested for RNA analysis. The procedure for RNA isolation, cDNA synthesis and qPCR were as described in Examples 5, 6 and 7.

[6] = system: human androgen receptor mRNA; experiment: AR mRNA knock-down in A549, 24 h post-transfection, 0.5-16 nM (qPCR); type: cell-based; conditions: 0.5, 1, 2, 4, 8 and 16 nM, 24 h post-transfection (FIG. 12)
Experimental: FIG. 12: AR mRNA in A549, 24 h post-transfection
as §3

Row | Substance | Liver (% KD) of AR mRNA expression ([1]; listed as SEQ ID: 58, 100 mg/kg) | Growth of LNCaP prostate cancer cells (viable cells, OD490 nm vs time) [2] | Growth of A549 lung cancer cells (viable cells, OD490 nm vs time) (A549 lung cancer cells) | Caspase 3/7 activity in LNCaP cells [3] | Caspase 3/7 activity in A549 cells [4] | Knock down of AR mRNA expression in LNCaP prostate cancer cell line [5] | Knock down of AR mRNA expression in lung cancer cell line A549 [6] | Liver (% KD) of AR mRNA expression ([1]; listed as SEQ ID: 77, 100 mg/kg) | Liver (% KD) of AR mRNA expression [1]
1 | 5′-AsCsCsasasgstststscststscsAsGsC-3′ (antisense lA*l[5mC]*l[5mC]*dA*dA*dG*dT*dT*dT*dC*dT*dT*dC*lA*lG*l[5mC]) [SEQ ID NO: 58, LNA gapmer antisense oligonucleotide] | 95.2 +/− 1.0% | inhibit growth | inhibit growth | induce caspase 3/7 activity | induce caspase 3/7 activity | potent in knocking down AR mRNA expression | potent in knocking down AR mRNA expression |  | 
2 | 5′-CsCsCsasasgsgscsascstsgscsAsGsA-3′ (antisense l[5mC]*l[5mC]*l[5mC]*dA*dA*dG*dG*dC*dA*dC*dT*dG*dC*lA*lG*lA) [SEQ ID NO: 77, LNA gapmer antisense oligonucleotide] |  | inhibit growth | inhibit growth | induce caspase 3/7 activity | induce caspase 3/7 activity | potent in knocking down AR mRNA expression | potent in knocking down AR mRNA expression | 91.9 +/− 3.9% | 
3 | 5′-TsTsTsgsascsascsasasgstsgsGsGsA-3′ (antisense lT*lT*lT*dG*dA*dC*dA*dC*dA*dA*dG*dT*dG*lG*lG*lA) [SEQ ID NO: 51, LNA gapmer antisense oligonucleotide] |  |  |  |  |  |  |  |  | 65.0 +/− 12.6%

From patent publication US7737125B2, “LNA antagonists targeting the androgen receptor” (Enzon Pharamaceuticals, Inc., priority 2007, dated 2010)
